Tests used:
[1] = tested on: MCF-7 cells; experiment: Would healing (migration) assay; format: cell-based; conditions: MCF-7, 24 h, vs control
Protocol: (§1) Totally, 5×10 ^5 cells were plated into each well of 6-well plates, and cultured to 70%–80% confluence, then the cell monolayer was gently and slowly scratched with a new 1-mL pipette tip across the center of the well. After scratching, the wells were gently washed with PBS twice to remove the detached cells, and replenished with fresh medium containing indicated concentration of compounds. The treated cells were allowed to grow for additional 24 h, and images were capturedunder a microscope. The migration distance were calculated and analyzed to evaluate the effects of compounds.

[2] = tested on: T47D cells; experiment: Would healing (migration) assay; format: cell-based; conditions: 24 h, vs control
Protocol: as §1

[3] = tested on: T47D xenograft; experiment: T47D tumor xenograft study; format: in vivo, nude mice
Protocol: Due to the strong cell growth inhibition potency of SY-707, we firstly evaluate its in vivo anti-cancer activity in T47D xenograft model mice. In this model, mice were orally administered twice a day with vehicle or SY-707 at dose of 100, 50 or 25 mg/kg after tumor size reached 150–300 mm ^3.
Next, we evaluated the combination effects of SY-707 and paclitaxel (an approved drug for breast cancer therapy) in T47D xenograft model. Mice bearing T47D breast cancer were divided randomly into 4 groups: vehicle, SY-707 (100 mg/kg/day), paclitaxel (10 mg/kg/week), and SY-707 plus paclitaxel groups.

[4] = tested on: 4T1 breast cancer metastasis to the lung; experiment: Metastasis analysis in vivo (lung nodules, 4T1 model); design: species or system nude mice; conditions: 4T1, treatment alone: SY-707 100 mg/kg/day PO; paclitaxel 10 or 20 mg/kg/week IV; 20 days; not statistically different
Protocol: Metastasis was detected in mouse lungs after the mice were sacrificed at the last dosing day. The lungs of each mouse were excised immediately and fixed with 4% paraformaldehyde for 24 h, then the lungs were photographed (three photographs per section per mouse) and the metastatic nodules in the lungs were manually counted and the data was analyzed for compound evaluation.
Mice were inoculated with 4T1 cells in PBS at right and left flanks expect the normal control group ( Figure 6A), SY-707 with or without paclitaxel was administered for 20 days when tumor volumes reached 150–300 mm ^3. The mice were sacrificed on the last day of drug administration, then the lungs were collected and metastatic nodules were counted manually for the evaluation of metastasis of 4T1 breast cancer.
The normal group (A) and the vehicle group which treatment with 20% SBE (B) were control. Mouse lungs were taken at the last day of treatment and fixed with 4% paraformaldehyde for 24 h, then the lungs were photographed and the metastatic nodules were counted manually for further analysis. *P<0.05, **P<0.01.

| Compound | migration distance [1] | migration distance [2] | tumor growth inhibition rate ([3]; reference compound group, 21 days, dose not given) | number of metastatic nodules in the lungs vs vehicle group [4] | tumor growth inhibition rate ([3]; combination study, paclitaxel 10 mg/kg/week alone, 24 days, P<0.05) |
| --- | --- | --- | --- | --- | --- |
| CN(c1ncccc1CNc1nc(Nc2ccc3c(c2)CC(=O)N3)ncc1C(F)(F)F)S(C)(=O)=O [PF-562271, reference compound] | significant reduction of migration | significant reduction of migration | 20% | – | – |
| CC(=O)O[C@H]1C(=O)[C@@]2(C)[C@H]([C@H](OC(=O)c3ccccc3)[C@]3(O)C[C@H](OC(=O)[C@H](O)[C@@H](NC(=O)c4ccccc4)c4ccccc4)C(C)=C1C3(C)C)[C@]1(OC(C)=O)CO[C@@H]1C[C@@H]2O [paclitaxel, reference compound] | – | – | – | reduced the number of metastatic nodules | 24% |
